Several values for one entry are separate records, joined by “and”; a condition that tells them apart may be missing. Equal values may be shown once.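 Growth conditions: 96-well plates. Treatment: test compound, 48 hours, 5 concentrations. Analysis: linear interpolation between bracketing concentrations; unreached endpoints set to highest concentration. GI50 marks 50% less growth. At the TGI there is no net growth.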
Columns and labels:
Test in all cases: NCI tumour cell line growth inhibition, 48 h
[1] = tested on: UACC-257 melanoma
[2] = tested on: XF 498 CNS
[3] = tested on: A498 renal
[4] = tested on: NCI-H460 lung
[5] = tested on: A549 NSCLC
[6] = tested on: MDA-MB-231 breast
[7] = tested on: HL-60(TB) leukemia
[8] = tested on: OVCAR-4 ovarian
[9] = tested on: BT-549 breast
[10] = tested on: HCT-116 colon
[11] = tested on: PC-3 prostate
[12] = tested on: NCI-H226 lung
[13] = tested on: M19-MEL melanoma
[14] = tested on: SF-295 CNS
[15] = tested on: NCI/ADR-RES ovarian
[16] = tested on: SF-539 CNS
[17] = tested on: CAKI-1 renal
[18] = tested on: HS 578T breast

CCOC(=O)C(CC(C)C)NC(=O)C(Cc1ccc(N(CCCl)CCCl)cc1)NC(C)=O (stereo unspecified)
TGI [1]: 14 µM and 13.1 µM
TGI [2]: 1.14 µM
GI50 [3]: 18.4 µM
TGI [3]: 37 µM and 48.4 µM
TGI [4]: 14.1 µM and 17.6 µM
TGI [5]: > 100 µM and 77.5 µM
TGI [6]: 23.2 µM
GI50 [7]: 2.07 µM
TGI [7]: 28.7 µM and 3.32 µM
GI50 [8]: 16.1 µM
TGI [8]: 29.5 µM and 27.1 µM
TGI [9]: 32.3 µM
GI50 [10]: 12.7 µM
TGI [10]: 29.3 µM and 39.8 µM
TGI [11]: 57.8 µM
GI50 [12]: 12.2 µM
TGI [12]: 28.3 µM and 41.1 µM
GI50 [13]: 6.3 µM
TGI [13]: 19.3 µM and 15.9 µM
GI50 [14]: 7.89 µM
TGI [14]: 26.8 µM and 26.3 µM
TGI [15]: 68.5 µM
TGI [16]: 10.6 µM and 9.63 µM
GI50 [17]: 3.71 µM
TGI [17]: 16.2 µM and 6.73 µM
TGI [18]: 20.2 µM

— PubChem BioAssay (NCI)
